Measured values reported in ChEMBL document CHEMBL5604061, “ASAP - WNV NS2B-NS3 protease fluorescence dose response” (2024).
Values joined by “and” are separate entries in the source; they are usually repeats but may differ in a detail not shown here. Equal values may be shown once.

Target: T1, NS3 (West Nile virus, UniProt K4FQI5)
T1 sequence (K4FQI5 whole entry): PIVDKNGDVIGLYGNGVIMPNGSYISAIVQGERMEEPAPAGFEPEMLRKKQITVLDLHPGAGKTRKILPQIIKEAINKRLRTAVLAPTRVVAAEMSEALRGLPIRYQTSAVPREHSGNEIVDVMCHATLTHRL
Test: Functional biochemical assay to identify treatments for viral infectious disease that targets West Nile NS2B-NS3 protease. Utilizing a direct enzyme activity measurement method, reading the fluorescence intensity is used to characterize the relative potency of inhibitors as IC50.
Set-up: species or system NY-99

Question: For `CN(c1ccc2c(c1)CNC2)[C@H](C(=O)NCC(F)F)c1cc(Cl)cc(C2CC2)c1`, which IC50 is on record?
Answer: 0.131 µM

Question: Which IC50 does the source give for `O=C(Nc1ccc2c(c1)CN[C@H]2[C@H](O)CO)c1cc(F)cc2[nH]ncc12` here?
Answer: 6.73 µM

Question: With `COC(=O)[C@H](C)n1cc2c(C(=O)Nc3ccc4c(c3)CNC4)cc(Cl)cc2n1` as the compound, how does the IC50 read?
Answer: 9.12 µM

Question: How did the IC50 turn out when `CCSc1ccc(Cl)cc1C(=O)Nc1ccc2c(c1)CNC2` was run?
Answer: 81.6 µM

Question: For `Cn1ncc2c(C(=O)Nc3ccc4c(c3)CNC4)cc(Cl)cc21`, which IC50 is on record?
Answer: 1.88 µM

Question: `NCc1cccc(NC(=O)[C@H](NC(=O)OCc2ccccc2)C2CCC(c3ccccc3)CC2)c1` (some centres undefined) was tested. Which IC50 did it give?
Answer: 8.31 µM

Question: How did the IC50 turn out when `Cc1ccc(NC(=O)c2cc(Cl)cc(NC(=O)OCc3ccccc3)c2)cc1CN` was run?
Answer: 60.7 µM

Question: How did the IC50 turn out when `O=C(NCC(F)F)[C@H](Nc1ccc2c(c1)CNC2)c1cc(Cl)cc(C2CC2)c1` was run?
Answer: 129 nM (2×) and 840 nM

Question: How did the IC50 turn out when `CNC(=O)[C@H](Nc1cc(CN)cc(-c2nn[nH]n2)c1)c1cc(Cl)cc(C2CC2)c1` was run?
Answer: 1 µM

Question: With `O=C(Nc1cc2c(c(-c3ccnnc3)c1)CNC2)c1cc(Cl)cc2[nH]ncc12` as the compound, how does the IC50 read?
Answer: 3.06 µM

Question: Which IC50 does the source give for `O=C(Nc1ccc2c(c1)CNC2)c1cc(Br)cc2[nH]c(=O)[nH]c12` here?
Answer: 4.67 µM

Question: Which IC50 does the source give for `CNC(=O)[C@H](Nc1ccc2c(c1)CNC2)c1cc(Cl)cc2[nH]ncc12` here?
Answer: 0.677 µM

Question: How did the IC50 turn out when `O=C(O)c1ccc(-c2cc(NC(=O)c3cc(F)cc4[nH]ncc34)cc3c2CNC3)cc1` was run?
Answer: 1.15 µM

Question: For `O=C(Nc1ccc2c(c1)CNC2)c1cc(F)cc(-c2c[nH]c(=O)c(F)c2)c1`, which IC50 is on record?
Answer: 0.665 µM

Question: Which IC50 does the source give for `COC(=O)CNC(=O)[C@H](Nc1ccc2c(c1)CNC2)c1cc(Cl)cc(C2CC2)c1` here?
Answer: 0.897 µM

Question: With `NCc1cccc(NC(=O)c2cc(Cl)cc(NC(=O)OCc3ccccc3)c2)c1` as the compound, how does the IC50 read?
Answer: 22.9 µM

Question: For `CCCCCC(=O)N[C@H](C(=O)Nc1ccc(C(N)=O)cc1)c1ccc(OCc2ccccc2)cc1`, which IC50 is on record?
Answer: > 99.5 µM

Question: With `c1ccc2c(CN3CCC(c4c[nH]c5cccnc45)CC3)c[nH]c2c1` as the compound, how does the IC50 read?
Answer: > 99.5 µM

Question: How did the IC50 turn out when `CC(C)c1nnc(-c2nc3c(C(=O)Nc4ccc5c(c4)CNC5)cc(F)cc3[nH]2)s1` was run?
Answer: 11.8 µM

Question: For `CC(C)NC(=O)[C@H](Nc1ccc2c(c1)CNC2)c1cc(Cl)cc2[nH]c(-c3ccccc3)nc12`, which IC50 is on record?
Answer: 0.28 µM and 0.286 µM and 0.152 µM and 0.255 µM

Question: With `N=C(N)NCCc1ccc(NC(=O)Oc2ccccc2)cc1` as the compound, how does the IC50 read?
Answer: 72.1 µM

Question: `O=C(Nc1ccc2c(c1)CN[C@H]2C[C@H](O)CO)c1cc(Cl)cc2[nH]ncc12` was tested. Which IC50 did it give?
Answer: 5.56 µM

Question: For `O=C(O)CCCc1cc(NC(=O)c2cc(F)cc3[nH]ncc23)cc2c1CNC2`, which IC50 is on record?
Answer: 1.51 µM

Question: Which IC50 does the source give for `CC(C)(C)c1cc(Br)cc(C(=O)Nc2ccc3c(c2)CNC3)c1` here?
Answer: 88.2 µM

Question: Which IC50 does the source give for `NCc1cccc(NC(=O)C[C@@H](NC(=O)OCc2ccccc2)c2ccc(OCc3ccccc3)cc2)c1` here?
Answer: 6.15 µM

Question: How did the IC50 turn out when `O=C(Nc1ccc2c(c1)CNC2)c1cc(F)cc2[nH]c(-c3cccc(F)c3)nc12` was run?
Answer: 7.29 µM

Question: How did the IC50 turn out when `O=C(NCCCF)[C@H](Nc1ccc2c(c1)CNC2)c1cc(Cl)cc(C2CC2)c1` was run?
Answer: 0.249 µM

Question: For `C=CC[C@H]1NCc2cc(N[C@H](C(=O)NC(C)C)c3cc(Cl)cc4[nH]ncc34)ccc21`, which IC50 is on record?
Answer: 0.886 µM

Question: Which IC50 does the source give for `COc1cc(C(=O)Nc2ccc3c(c2)CNC3)cc2ccoc12` here?
Answer: 48.9 µM

Question: For `O=C(O)c1cc(Cl)c(F)cc1S(=O)(=O)Nc1ccc(Oc2ccccc2Cl)cc1`, which IC50 is on record?
Answer: 32.6 µM

Question: Which IC50 does the source give for `O=C(Nc1ccc2c(c1)CNC2)c1ccc2c(C3=CCNCC3)csc2c1` here?
Answer: 7.5 µM

Question: How did the IC50 turn out when `O=C(NCC(F)F)[C@H](Nc1ccc2c(c1)CNC2)c1cc(Cl)ccc1Sc1ccccc1` was run?
Answer: 9.51 µM

Question: For `CC(C)c1nn(C)cc1-c1cc(F)cc(C(=O)Nc2ccc3c(c2)CNC3)c1`, which IC50 is on record?
Answer: 11.9 µM

Question: For `CC1=C(c2cc(NC(=O)c3cc(Cl)cc4[nH]ncc34)cc3c2CNC3)CCC1=O`, which IC50 is on record?
Answer: 12.9 µM

Question: With `O=C(Nc1ccc2c(c1)CN[C@H]2CCO)c1cc(F)cc2[nH]ncc12` as the compound, how does the IC50 read?
Answer: 1.66 µM

Question: For `COC[C@]1(c2nc3c(C(=O)Nc4ccc5c(c4)CNC5)cc(F)cc3[nH]2)CCOC1`, which IC50 is on record?
Answer: 20.5 µM

Question: How did the IC50 turn out when `N#Cc1cc(Cl)cc(C(=O)Nc2ccc3c(c2)CNC3)c1` was run?
Answer: 54.9 µM

Question: `O=C1Cc2c(cc(Br)cc2C(=O)Nc2ccc3c(c2)CNC3)N1` was tested. Which IC50 did it give?
Answer: 3.18 µM

Question: Which IC50 does the source give for `O=C(Nc1ccc2c(c1)CNC2)c1cc(Cl)cc2cn[nH]c12` here?
Answer: 7.83 µM

Question: Which IC50 does the source give for `O=C(Nc1cc2c(c(C3=CCOCC3)c1)CNC2)c1cc(F)cc2[nH]ncc12` here?
Answer: 0.627 µM

Question: For `O=C(Nc1ccc2c(c1)CNC2)c1cc(Cl)cc2c1cnn2C1CCOCC1`, which IC50 is on record?
Answer: 1.45 µM

Question: With `O=C(Nc1ccc2c(c1)CNC2)c1cc(F)cc(C2=CCCOC2)c1` as the compound, how does the IC50 read?
Answer: 9.61 µM

Question: Which IC50 does the source give for `N#Cc1c[nH]c2ccc(C(=O)Nc3ccc4c(c3)CNC4)cc12` here?
Answer: 9.06 µM

Question: `O=C(Nc1ccc2c(c1)CNCCO2)c1cc(Cl)cc2[nH]ncc12` was tested. Which IC50 did it give?
Answer: 19.6 µM

Question: Which IC50 does the source give for `O=C(Nc1cc(Cl)cc(C(=O)Nc2cccc([C@H]3C[C@H]3C(=O)O)c2)c1)OCc1ccccc1` here?
Answer: 81.5 µM

Question: For `COc1cc(Br)cc(C(=O)Nc2ccc3c(c2)CNC3)c1`, which IC50 is on record?
Answer: 92.7 µM

Question: With `O=C(Nc1ccc2c(c1)CNC2)c1cc(F)cc2[nH]c(-c3ccc(F)cc3O)nc12` as the compound, how does the IC50 read?
Answer: 24.1 µM

Question: How did the IC50 turn out when `C=CC[C@H]1NCc2cc(NC(=O)c3cc(Cl)cc4[nH]ncc34)ccc21` was run?
Answer: 14.1 µM

Question: With `O=C(Nc1ccc2c(c1)CNC2)c1cc(Br)cc2ccccc12` as the compound, how does the IC50 read?
Answer: 57.6 µM

Question: With `NCc1cccc(NC(=O)[C@H](NC(=O)OCc2ccccc2)c2ccc(Br)c(Cl)c2)c1` as the compound, how does the IC50 read?
Answer: 6.57 µM

Question: Which IC50 does the source give for `Nc1cc(Cl)cc(C(=O)Nc2ccc3c(c2)CNC3)c1N` here?
Answer: 33.3 µM

Question: How did the IC50 turn out when `O=C(O)c1cc(Cl)ccc1S(=O)(=O)NC1CCN(c2nc(C3CC3)cc(C(F)(F)F)n2)CC1` was run?
Answer: 48.5 µM

Question: For `O=C(Nc1ccc2c(c1)CNC2)c1cc(Cl)cc2c1CCC2`, which IC50 is on record?
Answer: 22.7 µM

Question: How did the IC50 turn out when `N#Cc1cccc(-c2nc3c(C(=O)Nc4ccc5c(c4)CNC5)cc(Cl)cc3[nH]2)c1` was run?
Answer: 7.57 µM

Question: How did the IC50 turn out when `NCCc1ccc(NC(=O)c2cc(Cl)cc(NC(=O)OCc3ccccc3)c2)cc1` was run?
Answer: 16 µM

Question: How did the IC50 turn out when `O=C(Nc1ccc2c(c1)CNC2)c1cccc2ccncc12` was run?
Answer: 11.4 µM

Question: For `CS(=O)(=O)c1cc2c(cc1NC(=O)c1cc(F)cc3[nH]ncc13)CNC2`, which IC50 is on record?
Answer: 2.51 µM

Question: With `O=C(Nc1ccc2c(c1)CNC2)c1cccc2[nH]ncc12` as the compound, how does the IC50 read?
Answer: 4.33 µM

Question: For `CCn1c(=O)c(N2C[C@H]3CCS(=O)(=O)[C@H]3C2)nc2ccccc21`, which IC50 is on record?
Answer: > 99.5 µM

Question: For `O=C(Nc1ccc2c(c1)CNC2)c1cc(F)cc2[nH]nnc12`, which IC50 is on record?
Answer: 5.06 µM

Question: Which IC50 does the source give for `N#C[C@H](Nc1ccc2c(c1)CNC2)c1cc(Cl)cc(C2CC2)c1` here?
Answer: 59 µM

Question: For `COCc1cc(Cl)cc([C@H](Nc2ccc3c(c2)CNC3)C(=O)NCC(F)F)c1`, which IC50 is on record?
Answer: 0.154 µM

Question: How did the IC50 turn out when `Cn1cc2c(C(=O)Nc3ccc4c(c3)CNC4)cc(Cl)cc2n1` was run?
Answer: 15.1 µM

Question: With `CCOc1cccc(-c2ccc(S(=O)(=O)Nc3ccc(Cl)cc3C(=O)O)cc2)c1` as the compound, how does the IC50 read?
Answer: 12.6 µM

Question: `Cn1ccc(-c2cc(F)cc(C(=O)Nc3ccc4c(c3)CNC4)c2)cc1=O` was tested. Which IC50 did it give?
Answer: 2.23 µM

Question: With `O=C(Nc1cc2c(cc1Br)CNC2)c1cc(Cl)cc2[nH]ncc12` as the compound, how does the IC50 read?
Answer: 2.73 µM

Question: Which IC50 does the source give for `NCc1cccc(NC(=O)c2cc(Cl)cc(CN)c2)c1` here?
Answer: 9.79 µM

Question: How did the IC50 turn out when `O=C(Nc1ccc2c(c1)CNC2)c1cc(Cl)cc2[nH]c(-c3cc(C4CC4)[nH]n3)nc12` was run?
Answer: 10.1 µM

Question: `O=C(NC[C@H]1CCCO1)[C@H](Nc1ccc2c(c1)CNC2)c1cc(Cl)cc2[nH]ncc12` was tested. Which IC50 did it give?
Answer: 1.16 µM

Question: `O=C(NC1CCOCC1)[C@H](Nc1ccc2c(c1)CNC2)c1cc(Cl)cc2[nH]ncc12` was tested. Which IC50 did it give?
Answer: 0.115 µM

Question: With `O=C(Nc1ccc2c(c1)CNC2)c1cccc2[nH]ccc12` as the compound, how does the IC50 read?
Answer: 8.63 µM

Question: `c1ccc2c(CN3CCC(c4cscn4)CC3)c[nH]c2c1` was tested. Which IC50 did it give?
Answer: > 99.5 µM

Question: With `O=C(NCCCn1ccnc1)[C@H](Nc1ccc2c(c1)CNC2)c1cc(Cl)cc(C2CC2)c1` as the compound, how does the IC50 read?
Answer: 0.839 µM

Question: For `NCc1cccc(NC(=O)[C@@H](NC(=O)OCc2ccccc2)c2ccc(OCc3ccccc3)cc2)c1`, which IC50 is on record?
Answer: 6.97 µM
